Where two headings read alike, the source gives them in different places.
What was measured:
Assay type in all cases: in vivo
[1] = test system: kochia (Bassia scoparia); assay: Test A postemergence, kochia; details: Bassia scoparia, post-emergence, 240 h, Postemergence, 0 to 100 scale (0 no effect, 100 complete control); for pest or weed control at 125 g/ha: 125 g ai/ha, read-out: Plant response rating, Kochia; for pest or weed control at 500 g/ha: 500 g ai/ha, visual injury vs untreated controls after approx. 10 days, read-out: Kochia plant response rating
How it was run: (§1)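 Postemergence ratings come from foliar sprays onto one- to two-leaf plants of 2 to 10 cm grown in loam/sand; preemergence ratings come from a directed spray onto the soil of newly seeded pots. Formulation was a surfactant-containing non-phytotoxic solvent blend.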

[2] = test system: corn (Zea mays); assay: Test A postemergence, corn; details: Zea mays, post-emergence, 240 h, Postemergence, 0 to 100 scale (0 no effect, 100 complete control); for Corn plant response rating (crop injury, 0 = no effect, 100 = complete kill) at 125 g/ha: 125 g ai/ha; for plant injury at 500 g/ha: 500 g ai/ha, visual injury vs untreated controls after approx. 10 days, read-out: Corn plant response rating
How it was run: as §1

[3] = test system: galium (catchweed bedstraw, Galium aparine); assay: Test A postemergence, galium; details: Galium, post-emergence, 240 h, Postemergence, 0 to 100 scale (0 no effect, 100 complete control); for pest or weed control at 125 g/ha: 125 g ai/ha, read-out: Plant response rating, Galium; for pest or weed control at 500 g/ha: 500 g ai/ha, visual injury vs untreated controls after approx. 10 days, read-out: Galium plant response rating
How it was run: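 Preemergence: pigweed seeds in loam soil–sand blend received a directed soil spray of test chemicals in a non-phytotoxic solvent with surfactant. Postemergence: barnyardgrass, wheat and galium in pots of the same soil, 2 to 10 cm tall at one- to two-leaf stage, sprayed with the same formulation.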

[4] = test system: blackgrass (Alopecurus myosuroides); assay: Test A postemergence, blackgrass; details: Alopecurus myosuroides, post-emergence, 240 h, Postemergence, 0 to 100 scale (0 no effect, 100 complete control); for pest or weed control at 125 g/ha: 125 g ai/ha, read-out: Plant response rating, Blackgrass; for pest or weed control at 500 g/ha: 500 g ai/ha, visual injury vs untreated controls after approx. 10 days, read-out: Blackgrass plant response rating
How it was run: as §1

Structure (SMILES) | pest or weed control at 125 g/ha ([1]; visual injury approx. 10 days) [%] | pest or weed control at 500 g/ha [1] [%] | Corn plant response rating (crop injury, 0 = no effect, 100 = complete kill) at 125 g/ha ([2]; visual injury approx. 10 days) [%] | plant injury at 500 g/ha [2] [%] | pest or weed control at 125 g/ha ([3]; visual injury approx. 10 days) [%] | pest or weed control at 500 g/ha [3] [%] | pest or weed control at 125 g/ha ([4]; visual injury approx. 10 days) [%] | pest or weed control at 500 g/ha [4] [%] | pest or weed control at 125 g/ha [1] [%] | Corn plant response rating (crop injury, 0 = no effect, 100 = complete kill) at 125 g/ha [2] [%] | pest or weed control at 125 g/ha [3] [%] | pest or weed control at 125 g/ha [4] [%]
Cc1c(NS(=O)(=O)C(F)(F)F)cc(C(=O)N(C)C)c(C)c1F [Compound 128, 3-Fluoro-N,N,2,4-tetramethyl-5-[[(trifluoromethyl)sulfonyl]amino]benzamide] | 30 | 70 | 10 | 60 | 80 | 90 | 10 | 30 | – | – | – | –
Cc1cc(C)c(N(COC(=O)C(C)(C)C)S(=O)(=O)C(F)(F)F)cc1C1=NOC2(CCCC2)C1 [Compound 140, [[2,4-Dimethyl-5-(1-oxa-2-azaspiro[4.4]non-2-en-3-yl)phenyl][(trifluoromethyl)sulfonyl]amino]methyl 2,2-dimethylpropanoate] | 10 | 60 | 0 | 30 | 50 | 70 | 30 | 30 | – | – | – | –
Cc1cc(C)c(N(COC(=O)C(C)(C)C)S(=O)(=O)C(F)(F)F)cc1C1=NOC2(CCCCC2)C1 [Compound 159, [[2,4-Dimethyl-5-(1-oxa-2-azaspiro[4.5]dec-2-en-3-yl)phenyl][(trifluoromethyl)sulfonyl]amino]methyl 2,2-dimethylpropanoate] | – | 40 | – | 30 | – | 90 | – | 20 | 20 | 0 | 80 | 0
Cc1c(NS(=O)(=O)C(F)(F)F)cc(C(=O)N2CCOCC2)c(C)c1F [Compound 190, 1,1,1-Trifluoro-N-[3-fluoro-2,4-dimethyl-5-(4-morpholinylcarbonyl)phenyl]methanesulfonamide] | – | 70 | – | 30 | – | 90 | – | 40 | 30 | 0 | 70 | 10
Cc1cc(C)c(C2=NOC3(CCCCC3)C2)cc1NS(=O)(=O)C(F)(F)F [Compound 197, N-[2,4-Dimethyl-5-(1-oxa-2-azaspiro[4.5]dec-2-en-3-yl)phenyl]-1,1,1-trifluoromethanesulfonamide] | – | 80 | – | 80 | – | 90 | – | 60 | 50 | 20 | 90 | 40
Cc1cc(C)c(C2=NOC3(CCCC3)C2)cc1NS(=O)(=O)C(F)(F)F [Compound 207, N-[2,4-Dimethyl-5-(1-oxa-2-azaspiro[4.4]non-2-en-3-yl)phenyl]-1,1,1-trifluoromethanesulfonamide] | – | 60 | – | 70 | – | 70 | – | 60 | 20 | 20 | 50 | 20
Cc1cc(Cl)c(NS(=O)(=O)C(F)(F)F)cc1C(=O)N1CCC(F)(F)CC1 [Compound 229, N-[2-Chloro-5-[(4,4-difluoro-1-piperidinyl)carbonyl]-4-methylphenyl]-1,1,1-trifluoromethanesulfonamide] | – | 90 | – | 70 | – | 90 | – | 70 | 60 | 20 | 90 | 20

Source: patent publication US20230278972A1, “SUBSTITUTED HALOALKYL SULFONANILIDE HERBICIDES” (FMC Corporation, priority 2020, published 2023)
